Assay results: patent publication US11906529B1, “Methods for treatment and diagnosis of endometriosis” (Marshall University Research Corporation, priority 2018, dated 2024)

What was measured:
[1] = system: EZH2 expression; assay: mRNA analysis on Ishikawa cells treated with PF and/or GSK 126; assay type: cell-based, human; details: depending on order of drug treatment, compared with control or endo PF alone
Procedure: (§1) Cell treatment. Ishikawa cells (human endometrial cell line) or EOOF5 cells (primary endometrial cells from a patient without endometriosis, gift from Emory University) were cultured in T75 flasks in complete media (DMEM, 10% FCS, 1% P/S). Cells were treated with 1% PF (control and endo patients) in charcoal stripped media containing 0.1% FCS, for 48 hours. A subset of cells were also treated with GSK126 or EPZ-6438 (FIG. 15), at various concentrations for 24 hours. Cells were collected post-treatment for RNA (PCR) and protein analysis (Western blotting).

[2] = system: EOOF5 cells; assay: xCELLigence cell index of primary endometrial cells treated with PF and/or drug; assay type: cell-based, human; details: for cell growth (% CI), PF and drug compared to PF alone: EOOF5 cells; for cell growth (% CI), PF and drug compared to PF alone / cell viability and growth in the presence of PF: 1% PF; for cell viability and growth in the presence of PF: human endometrial cells
Procedure: as §1
xCELLigence. EOOF5 cells (primary endometrial cells) was plated at 10,000 cells per well using xCELLigence technology. Plates that have gold electrodes attached to the bottom were utilized. The electrodes produce electrons, which interact with the solution, completing a circuit. As the number of adhered cells in the plate increases, the more this interferes with circuit completion. Cells were treated with either 1% control or endo PF alone or treated with PF for 24 hours before being treated with either 1 μM GSK, 2.5 μM GSK, or 2.5 μM EPZ. Cells were also treated with drug alone. % Cell Impedance (CI) was calculated compared to CF media.

[3] = system: global trimethylation; details: reactivates silenced PRC2 genes; cited from earlier work
[4] = system: Ishikawa cells; assay: Inhibitor study using MTT analysis on Ishikawa cells in the presence of PF; assay type: cell-based, human; details: 1% PF
Procedure: It was more than 1000 fold selective for EZH2 over other histone methyltransferases, including both SET-domain-containing and non-SET domain-containing methyltransferases, as shown schematically in FIG. 6A. […] In this regard, an inhibitor study using MTT analysis was conducted according to the schematic of FIG. 7A. Various doses of GSK126 were tested on Ishikawa cells in the presence of PF: 100 nM, 500 nM, 1 μM, 2.5 μM, 5 μM, and 10 μM in DMSO. Cell growth and viability of cells was evaluated rather than just EZH2 expression. (FIGS. 7B-7C) 1 mM and 0.1 mM solutions of GSK126 were also created from serial dilutions of 10 mM GSK126. […] It was somewhat unclear, however, whether that the effect of the drug as the volume of the vehicle (DMSO) could have impacted the results.
as §1

SMILES: CC[C@H](C)n1cc(C)c2c(C(=O)NCc3c(C)cc(C)[nH]c3=O)cc(-c3ccc(N4CCNCC4)nc3)cc21 [GSK 126]
- EZH2 mRNA expression [1]: bidirectional effect
- cell growth (% CI), drug added after PF pretreatment ([2]; 1% PF first for 24 hours followed by drug for 48 hours): able to lower the cell growth induced by PF
- cell growth (% CI), PF and drug compared to PF alone [2]: decrease in cell growth
- % CI, drug first followed by PF ([2]; GSK first for 24 hours, then 1% PF for another 48 hours): significant decrease in % CI
- cell viability and growth in the presence of PF [2]: concentration dependent decrease
- global H2K37 trimethylation levels [3]: inhibit global H2K37 trimethylation levels
- cell viability ([4]; 500 nM, vehicle (DMSO) volume could have impacted the results): dip in viability
- cell growth (proliferation) ([4]; GSK126 100 nM-10 μM in DMSO): very little proliferation

SMILES: CCN(c1cc(-c2ccc(CN3CCOCC3)cc2)cc(C(=O)NCc2c(C)cc(C)[nH]c2=O)c1C)C1CCOCC1 [EPZ-6438]
- cell growth (% CI), PF and drug compared to PF alone [2]: decrease in cell growth
- cell viability and growth in the presence of PF [2]: concentration dependent decrease
